Measurements taken from ChEMBL document CHEMBL3882725, “Indazole derivatives as JNK inhibitors and compositions and methods related thereto” (2002).

target: Mitogen-activated protein kinase 9 (Homo sapiens, UniProt P45984); test: Inhibition of His6-tagged JNK2 (unknown origin) assessed as reduction in c-Jun phosphorylation using GST-c-Jun (1 to 79 residues) and [gamma32P]ATP incubated for 1 hr by scintillation counting assay
Sequence (P45984 whole entry, the tested form may be a part): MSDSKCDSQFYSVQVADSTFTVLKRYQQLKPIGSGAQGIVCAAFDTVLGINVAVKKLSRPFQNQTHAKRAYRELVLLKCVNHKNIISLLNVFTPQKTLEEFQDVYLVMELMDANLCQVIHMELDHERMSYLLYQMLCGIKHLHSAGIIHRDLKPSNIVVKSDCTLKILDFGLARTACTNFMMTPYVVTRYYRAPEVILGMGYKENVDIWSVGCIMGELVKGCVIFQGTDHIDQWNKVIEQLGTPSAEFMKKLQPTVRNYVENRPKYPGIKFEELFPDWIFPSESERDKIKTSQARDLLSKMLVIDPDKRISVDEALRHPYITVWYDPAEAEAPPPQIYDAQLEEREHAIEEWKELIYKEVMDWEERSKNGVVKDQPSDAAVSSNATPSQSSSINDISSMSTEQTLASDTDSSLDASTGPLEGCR

IC50 [µM] | SMILES
0.5 to 10 | CN(C)Cc1n[nH]c(-c2ccc3[nH]nc(-c4cccc(C(=O)NC5Cc6ccccc6C5)c4)c3c2)n1
0.5 to 10 | O=C(NC1CCCCC1)c1cccc(-c2n[nH]c3ccc(-c4nc[nH]n4)cc23)c1
1 to 10 | CCCc1n[nH]c(-c2ccc3[nH]nc(-c4ccc(F)cc4)c3c2)n1
≤ 10 | Fc1ccc(-c2n[nH]c3ccc(CCc4ccccn4)cc23)cc1
1 to 10 | NC(=O)c1ccc2[nH]nc(-c3cccc(OCCN4CCCCC4)c3)c2c1
1 to 10 | Cc1ccccc1C(=O)Nc1ccc2[nH]nc(-c3ccc(F)cc3)c2c1
1 to 10 | O=C(Nc1cccc(-c2n[nH]c3ccc(-c4nc[nH]n4)cc23)c1)c1ccc(Cl)nc1
0.5 to 10 | O=c1[nH]c(-c2ccc3[nH]nc(-c4ccc(F)cc4)c3c2)no1
≤ 10 | O=[N+]([O-])c1ccc2[nH]nc(-c3cccc(C(F)(F)F)c3)c2c1
1 to 10 | c1nc(-c2ccc3[nH]nc(-c4ccsc4)c3c2)n[nH]1
≤ 10 | COc1ccc(-c2n[nH]c3ccc([N+](=O)[O-])cc23)cc1
1 to 10 | Nc1ccc(-c2nnc(-c3ccc4[nH]nc(-c5ccc(F)cc5)c4c3)[nH]2)cc1
1 to 10 | NC(=O)CCCNC(=O)c1ccc2[nH]nc(-c3ccc(F)cc3)c2c1
1 to 10 | O=C(O)c1ccc(NC(=O)c2ccc3[nH]nc(-c4ccc(F)cc4)c3c2)cc1
1 to 10 | c1nc(-c2ccc3[nH]nc(-c4ccc5c(c4)OCCO5)c3c2)n[nH]1
1 to 10 | NC(=O)c1ccc2[nH]nc(-c3cccc(NC(=O)Cc4ccc(Cl)cc4Cl)c3)c2c1
0.5 to 10 | COc1ccc(CC(=O)Nc2cccc(-c3n[nH]c4ccc(C(N)=O)cc34)c2)cc1
1 to 10 | O=C(Nc1cccc(-c2n[nH]c3ccc(-c4nc[nH]n4)cc23)c1)c1cc2ccccc2s1
0.5 to 10 | CC(=O)O[C@@H](C)C(=O)Nc1cccc(-c2n[nH]c3ccc(C(N)=O)cc23)c1
1 to 10 | C(#Cc1n[nH]c2ccc(-c3nnc[nH]3)cc12)c1ccccc1
1 to 10 | O=C(NCCOc1cccc(-c2n[nH]c3ccc(-c4ncn[nH]4)cc23)c1)OCc1ccccc1
0.5 to 10 | COc1ccc(-c2n[nH]c3ccc(-c4nnn[nH]4)cc23)cc1
≤ 10 | COC(=O)c1cccc(C(=O)Nc2ccc3[nH]nc(-c4ccc(F)cc4)c3c2)c1
0.5 to 10 | O=C(N[C@@H]1CCc2ccccc21)c1cccc(-c2n[nH]c3ccc(-c4ncn[nH]4)cc23)c1
1 to 10 | CC(O)CNC(=O)c1ccc2[nH]nc(-c3ccc(F)cc3)c2c1 (stereo not drawn)

IC50 [µM] | SMILES
0.5 to 10 | O=C(NC1CC1)c1cccc(-c2n[nH]c3ccc(-c4nc[nH]n4)cc23)c1
1 to 10 | c1nc(-c2ccc3[nH]nc(-c4ccc5c(c4)CCO5)c3c2)n[nH]1
≤ 10 | CC(C)(C)OC(=O)CCNC(=O)c1ccc2[nH]nc(-c3ccc(F)cc3)c2c1
0.5 to 10 | CC(C)CC(=O)Nc1cccc(-c2n[nH]c3ccc(-c4nc[nH]n4)cc23)c1
1 to 10 | Clc1ccc(/C=C/c2n[nH]c3ccc(-c4nc[nH]n4)cc23)cc1
0.5 to 10 | O=C(NCCN1CCOCC1)c1cccc(-c2n[nH]c3ccc(-c4nc[nH]n4)cc23)c1
1 to 10 | NC(=O)c1ccc(C(=O)Nc2ccc3[nH]nc(-c4ccc(F)cc4)c3c2)cc1
1 to 10 | O=C(Nc1ccncc1)c1ccc2[nH]nc(-c3ccc(F)cc3)c2c1
≤ 10 | COC(=O)c1ccc(NC(=O)c2ccc3[nH]nc(-c4ccc(F)cc4)c3c2)cc1
1 to 10 | NC(=O)c1ccc2[nH]nc(-c3cccc(NC(=O)Cc4ccc(Cl)cc4)c3)c2c1
1 to 10 | Oc1ccc(-c2nnc(-c3ccc4[nH]nc(-c5ccc(F)cc5)c4c3)[nH]2)cc1
1 to 10 | COc1ccccc1-c1n[nH]c2ccc(-c3nnn[nH]3)cc12
0.5 to 10 | O=C(NCCc1ccccc1)c1cccc(-c2n[nH]c3ccc(-c4nc[nH]n4)cc23)c1
≤ 10 | Nc1ccc2[nH]nc(-c3ccc(F)cc3)c2c1
0.5 to 10 | Fc1ccc(-c2n[nH]c3ccc(-c4nnc[nH]4)cc23)cc1
1 to 10 | CC(C)(C)CNC(=O)c1cccc(-c2n[nH]c3ccc(-c4ncn[nH]4)cc23)c1
1 to 10 | NC(=O)c1ccc2[nH]nc(-c3cccc(NC(=O)C4CCNCC4)c3)c2c1
1 to 10 | c1cc(OCCN2CCCCCC2)cc(-c2n[nH]c3ccc(-c4ncn[nH]4)cc23)c1
1 to 10 | O=C(Nc1ccc2[nH]nc(-c3ccccc3)c2c1)c1ccccc1
0.5 to 10 | COc1ccc(-c2n[nH]c3ccc(-c4nnn[nH]4)cc23)cc1OC
1 to 10 | NC(=O)c1ccc2[nH]nc(-c3cccc(NC(=O)Cc4ccc(F)c(F)c4)c3)c2c1
1 to 10 | CN(C)CCNC(=O)c1ccc2[nH]nc(-c3cc4ccccc4o3)c2c1
≤ 10 | Fc1ccc(-c2n[nH]c3ccc(CCc4ccccc4)cc23)cc1
≤ 10 | NCCOc1cccc(-c2n[nH]c3ccc(-c4ncn[nH]4)cc23)c1
0.5 to 10 | CN(C)CCNC(=O)c1cccc(-c2n[nH]c3ccc(-c4ncn[nH]4)cc23)c1

IC50 [µM] | SMILES
0.5 to 10 | Fc1ccc(-c2n[nH]c3ccc(-c4n[nH]c(CN5CCCC5)n4)cc23)cc1
1 to 10 | NNC(=O)c1ccc2[nH]nc(-c3ccc(F)cc3)c2c1
1 to 10 | NC(=O)c1ccc(NC(=O)c2ccc3[nH]nc(-c4ccc(F)cc4)c3c2)cc1
1 to 10 | COCCNC(=O)c1ccc2[nH]nc(-c3cc4ccccc4o3)c2c1
0.5 to 10 | COCC(=O)Nc1cccc(-c2n[nH]c3ccc(-c4nnc[nH]4)cc23)c1
1 to 10 | Cc1ncc(CC(=O)Nc2cccc(-c3n[nH]c4ccc(C(N)=O)cc34)c2)s1
1 to 10 | Nc1cccc(-c2n[nH]c3ccc(-c4nnc[nH]4)cc23)c1
1 to 10 | Cn1cncc1CCNC(=O)c1ccc2[nH]nc(-c3ccc(F)cc3)c2c1
0.5 to 10 | CC(Oc1ccccc1)C(=O)Nc1cccc(-c2n[nH]c3ccc(-c4nn[nH]n4)cc23)c1 (stereo not drawn)
≤ 10 | O=C(Nc1ccc(F)cc1)Nc1ccc2[nH]nc(-c3ccc(F)cc3)c2c1
1 to 10 | CN(C)c1ccc(CC(=O)Nc2cccc(-c3n[nH]c4ccc(C(N)=O)cc34)c2)cc1
1 to 10 | CCOC(=O)CCCc1nnc(-c2ccc3[nH]nc(-c4ccc(F)cc4)c3c2)[nH]1
1 to 10 | O=C(Nc1ccc(-c2n[nH]c3ccc(-c4ncn[nH]4)cc23)cc1)c1ccco1
0.5 to 10 | c1ccc2oc(-c3n[nH]c4ccc(-c5nnn[nH]5)cc34)cc2c1
1 to 10 | NC(=O)c1ccc2[nH]nc(-c3cccc(NC(=O)CCc4ccc(F)cc4)c3)c2c1
≤ 10 | O=C(Nc1ccccn1)c1ccc2[nH]nc(-c3ccc(F)cc3)c2c1
1 to 10 | CC(=O)N1CCN(CCOc2cccc(-c3n[nH]c4ccc(-c5ncn[nH]5)cc34)c2)CC1
1 to 10 | NC(=O)c1ccc2[nH]nc(-c3cccc(N)c3)c2c1
1 to 10 | CC(=O)Nc1ccc2[nH]nc(-c3ccccc3)c2c1
1 to 10 | Fc1ccc(-c2n[nH]c3ccc(-c4nnc(-c5cccnc5)[nH]4)cc23)cc1
1 to 10 | c1nc(-c2ccc3[nH]nc(-c4ccc5c(c4)OCO5)c3c2)n[nH]1
1 to 10 | CN1CCN(CC(=O)Nc2cccc(-c3n[nH]c4ccc(-c5nc[nH]n5)cc34)c2)CC1
0.5 to 10 | C[C@H](O)C(=O)Nc1cccc(-c2n[nH]c3ccc(-c4nn[nH]n4)cc23)c1
1 to 10 | Clc1ccc(-c2n[nH]c3ccc(-c4nc[nH]n4)cc23)cc1Cl
0.5 to 10 | c1coc(-c2n[nH]c3ccc(-c4nnn[nH]4)cc23)c1

IC50 [µM] | SMILES
1 to 10 | CS(=O)(=O)c1ccc(-c2n[nH]c3ccc(-c4ncn[nH]4)cc23)cc1
0.5 to 10 | COCC(=O)Nc1cccc(-c2n[nH]c3ccc(-c4nn[nH]n4)cc23)c1
0.5 to 10 | CC(C)(C)CC(=O)Nc1cccc(-c2n[nH]c3ccc(-c4nc[nH]n4)cc23)c1
≤ 10 | O=[N+]([O-])c1ccc2[nH]nc(-c3cccc4ccccc34)c2c1
1 to 10 | O=C(NO)c1ccc2[nH]nc(-c3ccc(F)cc3)c2c1
≤ 10 | Cc1ccc2[nH]nc(-c3ccccc3)c2c1
0.5 to 10 | O=C(NC1CCN(Cc2ccccc2)CC1)c1cccc(-c2n[nH]c3ccc(-c4nc[nH]n4)cc23)c1
1 to 10 | CC(C)c1cccc(-c2n[nH]c3ccc(-c4nc[nH]n4)cc23)c1
0.5 to 10 | CC(O)c1nnc(-c2ccc3[nH]nc(-c4ccc(F)cc4)c3c2)[nH]1 (stereo not drawn)
0.5 to 10 | CN(C)Cc1nc(-c2ccc3[nH]nc(-c4cccc(C(=O)NC(C)(C)C)c4)c3c2)n[nH]1
0.5 to 10 | O=C(Nc1cccc(-c2n[nH]c3ccc(-c4nc[nH]n4)cc23)c1)c1ccccn1
≤ 10 | O=C(c1ccc2[nH]nc(-c3ccc(F)cc3)c2c1)N1CCCC1
≤ 10 | c1ccc(COc2ccc3[nH]nc(-c4ccccc4)c3c2)cc1
1 to 10 | O=C(Nc1cccc(-c2n[nH]c3ccc(-c4nc[nH]n4)cc23)c1)C(=O)c1ccccc1
0.5 to 10 | O=C(Nc1ccc(-c2n[nH]c3ccc(-c4nn[nH]n4)cc23)cc1)c1cccnc1
≤ 10 | O=C(O)c1ccc(CCc2ccc3[nH]nc(-c4ccc(F)cc4)c3c2)cc1
≤ 10 | Fc1ccc(-c2n[nH]c3ccc(NCc4cccnc4)cc23)cc1
1 to 10 | c1ccc2cc(-c3n[nH]c4ccc(-c5ncn[nH]5)cc34)ccc2c1
1 to 10 | Fc1ccc(-c2n[nH]c3ccc(-c4nc(-c5ccco5)n[nH]4)cc23)cc1
1 to 10 | COC(=O)CCc1nnc(-c2ccc3[nH]nc(-c4ccc(F)cc4)c3c2)[nH]1
0.5 to 10 | CC(C)CC(=O)Nc1cccc(-c2n[nH]c3ccc(-c4n[nH]c(CN(C)C)n4)cc23)c1
1 to 10 | O=C(N[C@@H]1c2ccccc2C[C@@H]1O)c1cccc(-c2n[nH]c3ccc(-c4ncn[nH]4)cc23)c1
1 to 10 | O=C(Nc1ccc2[nH]nc(-c3ccccc3)c2c1)c1ccccn1

SMILES | IC50 [µM]
O=C(Nc1cccc(-c2n[nH]c3ccc(-c4nc[nH]n4)cc23)c1)[C@@H](O)c1ccccc1 | 0.5 to 10
O=C(NCCN1CCCCC1)c1cccc(-c2n[nH]c3ccc(-c4nc[nH]n4)cc23)c1 | 0.5 to 10
OC(Cc1ccccc1)c1ccc2[nH]nc(-c3ccc(F)cc3)c2c1 (stereo not drawn) | 1 to 10
NC(=O)c1ccc2[nH]nc(-c3cccc(C(=O)NCCN4CCCCC4)c3)c2c1 | 1 to 10
O=C(NCc1cccnc1)c1ccc2[nH]nc(-c3ccc(F)cc3)c2c1 | 1 to 10
